Data reported in patent US7759345B2, “Antitumoral derivatives of ET-743” (priority 2001, dated 2010).

Assays:
[1] = tested on: HT-29; test: Inhibition of cell growth by counting cells, HT-29; format: cell-based, human; settings: Homo sapiens, HT-29, 72 h; three days of incubation; read-out: IC50 (molar) HT-29
Procedure, shortened: (§1)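 Growth inhibition by direct cell counting: exponentially growing cells treated 3 days with compound at 37° C; IC50 derived from dose-response of net cells per well.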

[2] = tested on: A-549; test: Inhibition of cell growth by counting cells, A-549; format: cell-based, human; settings: Homo sapiens, A549, 72 h; three days of incubation; read-out: IC50 (molar) A-549
Procedure, shortened: as §1

[3] = tested on: MEL-28; test: Inhibition of cell growth by counting cells, MEL-28; format: cell-based, human; settings: Homo sapiens, SK-MEL-28, 72 h; three days of incubation; read-out: IC50 (molar) MEL-28
Procedure, shortened: as §1

[4] = tested on: P-388; test: Inhibition of cell growth by counting cells, P-388; format: cell-based, mouse; settings: Mus musculus, P388, 72 h; three days of incubation; read-out: IC50 (molar) P-388
Procedure, shortened: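 IC50 is the sample concentration halving growth, taken from dose-response curves of cell counts (Coulter counter, duplicate wells) relative to drug-free cultures. P-388 (DBA/2 mouse lymphoid neoplasm) cells plated at 1×10^4 per well in EMEM with 5% FCS plus test sample.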

[5] = tested on: Heart
Text: (§3) Toxicity was asssessed by the methods reported in Toxicology in Vitro, 15 (2001) 571-577, J. Luber Narod et al.: “Evaluation of the use of in vitro methodolodies as tools for screening new compounds for potential in vivo toxicity”.

[6] = tested on: Liver
Text: as §3

[7] = tested on: Kidney
Text: as §3

[8] = tested on: Myelo
Text: as §3

[9] = tested on: Skeletal
Text: as §3

[10] = tested on: DU-145; test: Inhibition of cell growth by counting cells, DU-145; format: cell-based, human; settings: Homo sapiens, DU-145, 72 h; three days of incubation; read-out: IC50 (molar) DU-145
Procedure, shortened: as §1

[11] = tested on: HT-29; test: Inhibition of cells growth by colorimetric assay (SRB), HT-29; format: cell-based; settings: SRB, 48 hours exposure; for GI50 / LC50 (concentration for 50% cell killing): Homo sapiens, HT-29, 48 h; for HT-29 TGI / GI50: HT-29; for GI50: read-out: HT-29 GI50; for LC50 (concentration for 50% cell killing): read-out: HT-29 LC50, HT-29
Procedure, shortened: (§2)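 Human cancer and endothelial lines are seeded at 5×10^3 cells per well and, after 18 h, treated for 48 h with compound dissolved in DMSO/EtOH/PBS (0.5:0.5:99) at 10 to 10^−8 μg/ml. Cell mass is quantified by SRB staining (OD 490 nm), and growth inhibition, total growth inhibition and cell kill are calculated from triplicate wells.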

[12] = tested on: A-549; test: Inhibition of cells growth by colorimetric assay (SRB), A-549; format: cell-based; settings: SRB, 48 hours exposure; for GI50 / LC50 (concentration for 50% cell killing): Homo sapiens, A549, 48 h; for A-549 TGI / GI50: A-549; for GI50: read-out: A-549 GI50; for LC50 (concentration for 50% cell killing): read-out: A-549 LC50, A-549
Procedure, shortened: as §2

Row | Structure (SMILES) | IC50 [1] [nM] | IC50 [2] [nM] | IC50 [3] [nM] | IC50 [4] [nM] | Toxicity Data Heart [5] | Toxicity Data Liver [6] | Toxicity Data Kidney [7] | Toxicity Data Myelo [8] | Toxicity Data Skeletal [9] | IC50 [10] [nM] | HT-29 TGI [11] | GI50 [11] [nM] | LC50 (concentration for 50% cell killing) [11] [nM] | A-549 TGI [12] | GI50 [12] [nM] | LC50 (concentration for 50% cell killing) [12] [nM]
1 | COc1cc2c(cc1OC(C)=O)CCN[C@]21CS[C@@H]2c3c(OC(C)=O)c(C)c4c(c3[C@H](COC1=O)N1C2[C@H]2c3c(cc(C)c(OC)c3O)C[C@@H]([C@@H]1O)N2C)OCO4 (stereo partly shown) [Compound 57] | 0.149 | 0.149 | 0.149 | 0.149 | 3.48E-09 | 4.66E-09 | 3.35E-09 | 1.85E-08 | – | – | – | – | – | – | – | –
2 | CCCCCCCC(=O)Oc1cc2c(cc1OC)[C@@]1(CS[C@@H]3c4c(OC(C)=O)c(C)c5c(c4[C@H](COC1=O)N1C3[C@H]3c4c(cc(C)c(OC)c4O)C[C@@H]([C@@H]1O)N3C)OCO5)NCC2 (stereo partly shown) [Compound 59] | 0.113 | 0.113 | 0.113 | 0.113 | 8.14E-08 | 2.53E-08 | 2.87E-08 | 4.18E-08 | 1.46E-07 | 0.113 | – | – | – | – | – | –
3 | COc1cc2c(cc1OC(=O)/C=C/c1ccccc1)CCN[C@]21CS[C@@H]2c3c(OC(C)=O)c(C)c4c(c3[C@H](COC1=O)N1C2[C@H]2c3c(cc(C)c(OC)c3O)C[C@@H]([C@@H]1O)N2C)OCO4 (stereo partly shown) [Compound 61] | 0.112 | 0.112 | 0.112 | 0.112 | 2.76E-08 | 1.32E-08 | 5.12E-09 | 1.69E-08 | 1.47E-08 | 0.112 | – | – | – | – | – | –
4 | C=CCOC(=O)Oc1cc2c(cc1OC)[C@@]1(CS[C@@H]3c4c(OC(C)=O)c(C)c5c(c4[C@H](COC1=O)N1C3[C@H]3c4c(cc(C)c(OC)c4O)C[C@@H]([C@@H]1O)N3C)OCO5)NCC2 (stereo partly shown) [Compound 64] | 0.592 | 0.592 | 0.592 | 0.118 | 5.50E-08 | 2.57E-08 | 1.77E-08 | 1.93E-08 | 1.66E-09 | – | – | – | – | – | – | –
5 | COc1cc2c(cc1OC(=O)OCc1ccccc1)CCN[C@]21CS[C@@H]2c3c(OC(C)=O)c(C)c4c(c3[C@H](COC1=O)N1C2[C@H]2c3c(cc(C)c(OC)c3O)C[C@@H]([C@@H]1O)N2C)OCO4 (stereo partly shown) [Compound 65] | 0.112 | 0.112 | 0.112 | 0.112 | 9.00E-09 | 5.30E-09 | 3.15E-09 | 1.70E-08 | 3.77E-09 | 0.112 | – | – | – | – | – | –
6 | CCOc1cc2c(cc1OC)[C@@]1(CS[C@@H]3c4c(OC(C)=O)c(C)c5c(c4[C@H](COC1=O)N1C3[C@H]3c4c(cc(C)c(OC)c4O)C[C@@H]([C@@H]1O)N3C)OCO5)NCC2 (stereo partly shown) [Compound 68] | 0.633 | 0.633 | – | – | 1.13E-08 | 1.76E-08 | 5.10E-09 | 1.89E-08 | 1.27E-08 | – | – | – | – | – | – | –
7 | C=CCOc1cc2c(cc1OC)[C@@]1(CS[C@@H]3c4c(OC(C)=O)c(C)c5c(c4[C@H](COC1=O)N1C3[C@H]3c4c(cc(C)c(OC)c4O)C[C@@H]([C@@H]1O)N3C)OCO5)NCC2 (stereo partly shown) [Compound 70] | 0.125 | 0.125 | 0.125 | 0.125 | 2.20E-07 | 3.16E-08 | 1.07E-07 | 6.61E-08 | 3.67E-08 | 0.125 | – | – | – | – | – | –
8 | COc1cc2c(cc1OC(=O)[C@H](C)NC(=O)OC(C)(C)C)CCN[C@]21CS[C@@H]2c3c(OC(C)=O)c(C)c4c(c3[C@H](COC1=O)N1C2[C@H]2c3c(cc(C)c(OC)c3O)C[C@@H]([C@@H]1O)N2C)OCO4 (stereo partly shown) [Compound 79] | 0.107 | 0.107 | – | – | 3.46E-08 | 2.28E-08 | 1.74E-08 | 1.35E-08 | 2.75E-09 | – | – | – | – | – | – | –
9 | C=COC(=O)Oc1cc2c(cc1OC)[C@@]1(CS[C@@H]3c4c(OC(C)=O)c(C)c5c(c4[C@H](COC1=O)N1C3[C@H]3c4c(cc(C)c(OC)c4OC(=O)OC=C)C[C@@H]([C@@H]1O)N3C)OCO5)NCC2 (stereo partly shown) [Compound 92] | – | – | – | – | 2.80E-08 | 2.30E-08 | 1.35E-08 | 1.92E-08 | 1.21E-08 | – | 1.11E-09 | 1.11 | 55.5 | 7.77E-09 | 3.33 | 33.3
10 | CCN1CCc2cc(O)c(OC)cc2[C@@]12CS[C@@H]1c3c(OC(C)=O)c(C)c4c(c3[C@H](COC2=O)N2C1[C@H]1c3c(cc(C)c(OC)c3O)C[C@@H]([C@@H]2O)N1C)OCO4 (stereo partly shown) [Compound 94] | 0.152 | 0.152 | 0.152 | 0.152 | 6.66E-08 | 1.24E-08 | 3.49E-09 | 1.13E-08 | 1.44E-09 | – | – | – | – | – | – | –
11 | COc1cc2c(cc1O)CCN[C@]21CS[C@@H]2c3c(OC(C)=O)c(C)c4c(c3[C@H](COC1=O)N1C2[C@H]2c3c(cc(C)c(OC)c3OC)C[C@@H]([C@@H]1O)N2C)OCO4 (stereo partly shown) [Compound 98] | 0.129 | 0.129 | – | – | 4.98E-08 | 4.21E-08 | 1.08E-06 | 3.79E-08 | 1.24E-08 | – | – | – | – | – | – | –
12 | C=COC(=O)Oc1cc2c(cc1OC)[C@@]1(CS[C@@H]3c4c(OC(C)=O)c(C)c5c(c4[C@H](COC1=O)N1C3[C@H]3c4c(cc(C)c(OC)c4OC(=O)OC=C)C[C@@H]([C@@H]1O)N3C)OCO5)N(C(=O)OC=C)CC2 (stereo partly shown) [Compound 99] | – | – | – | – | 1.13E-07 | 4.80E-08 | 2.56E-08 | 1.45E-07 | 9.71E-08 | – | 1.03E-07 | 34.3 | 10300 | 9.96E-08 | 43.5 | 10300
13 | CCCC(=O)Oc1c(C)c2c(c3c1[C@H]1SC[C@]4(NCCc5cc(O)c(OC)cc54)C(=O)OC[C@@H]3N3C1[C@H]1c4c(cc(C)c(OC)c4O)C[C@@H]([C@@H]3O)N1C)OCO2 (stereo partly shown) [Compound 163] | – | – | – | – | 4.80E-07 | 9.80E-07 | 6.33E-07 | 2.38E-07 | 2.53E-06 | – | 1.14E-09 | 0.38 | 3.8 | 2.53E-09 | 0.38 | 8.86
14 | C=CCOC(=O)Oc1c(C)c2c(c3c1[C@H]1SC[C@]4(NCCc5cc(O)c(OC)cc54)C(=O)OC[C@@H]3N3C1[C@H]1c4c(cc(C)c(OC)c4O)C[C@@H]([C@@H]3O)N1C)OCO2 (stereo partly shown) [Compound 165] | – | – | – | – | 2.79E-08 | 1.68E-08 | 1.89E-08 | 2.87E-08 | 1.47E-08 | – | 3.73E-10 | 0.249 | 0.995 | 3.73E-10 | 0.124 | 1.24
15 | C=CCOc1c(C)c2c(c3c1[C@H]1SC[C@]4(NCCc5cc(O)c(OC)cc54)C(=O)OC[C@@H]3N3C1[C@H]1c4c(cc(C)c(OC)c4O)C[C@@H]([C@@H]3O)N1C)OCO2 (stereo partly shown) [Compound 183] | 0.132 | 0.132 | – | – | 3.72E-08 | 3.03E-08 | 6.72E-03 | 2.39E-08 | 2.67E-08 | – | – | – | – | – | – | –
16 | CCCCCCCC(=O)Oc1cc2c(cc1OC)[C@@]1(CS[C@@H]3c4c(OC(C)=O)c(C)c5c(c4[C@H](COC1=O)N1C3[C@@H]3N[C@@H](Cc4cc(C)c(OC)c(O)c43)[C@@H]1O)OCO5)NCC2 (stereo partly shown) [Compound 213] | 0.114 | 0.114 | – | – | 1.82E-07 | 3.93E-08 | 1.48E-08 | 2.70E-08 | 1.72E-07 | – | – | – | – | – | – | –
